The test system of one test is Bel-7402. The experiment in a line: Cytotoxicity against human Bel7402 cells. The test is classed as functional, cell-based.
The next test has as its system HL-60. The experiment in a line: Cytotoxicity against human HL60 cells. The test is classed as functional, cell-based.

Molecules are shown by their SMILES. In brackets after ≈: the same amount, converted by molar mass.

Turning to `C=C1C(=O)O[C@H]2[C@H]1[C@H](OC(=O)/C(C)=C\C)CC(CO)=C1C[C@H](O)[C@](C)(O)[C@@H]12` [EUPACHINILIDE A], the values for the IC50 in the test on Bel-7402 and with HL-60 were 72.2 µg/mL (≈ 191 µM) and 10.8 µg/mL (≈ 28.5 µM), respectively.

Regarding `C=C1C(=O)O[C@H]2[C@H]1[C@H](OC(=O)/C(C)=C/CO)C[C@](O)(CCl)[C@@H]1[C@H](O)[C@H]3O[C@@]3(C)[C@H]21` [EUPACHINILIDE E], the IC50 in the test on Bel-7402 was found to be 18 µg/mL (≈ 42 µM); in the test on HL-60, 1.3 µg/mL (≈ 3.03 µM).

Consider `C=C1C(=O)O[C@@H]2/C=C(\C)C[C@H](O)/C=C(\C)C[C@@H](OC(=O)/C(C)=C/COC(C)=O)[C@@H]12` [EUPACHINILIDE I], for which the IC50 with Bel-7402 came out at 3.6 µg/mL (≈ 8.9 µM); in the test with HL-60, 0.94 µg/mL (≈ 2.32 µM).

Consider `C=C1C(=O)O[C@H]2[C@H]1[C@H](OC(=O)/C(C)=C/CO)C[C@](O)(CCl)[C@@H]1[C@H](OC(C)=O)[C@H]3O[C@@]3(C)[C@H]21` [EUPACHNILIDE F], for which the figures for the IC50 in the test on Bel-7402 and with HL-60 were 3.7 µg/mL (≈ 7.86 µM) and 0.87 µg/mL (≈ 1.85 µM), respectively.

On to `CC[C@@]1(O)C(=O)OCc2c1cc1n(c2=O)Cc2cc3cc(O)ccc3nc2-1` [HYDROXYCAMPTOTHECIN], for which the IC50 in the test on Bel-7402 is 0.62 µg/mL (≈ 1.7 µM); with HL-60 it was 0.024 µg/mL (≈ 0.0659 µM).

In general, IC50 refers to the concentration that gives 50% inhibition.

Source of the values: ChEMBL document CHEMBL1151175, “Cytotoxic sesquiterpenoids from Eupatorium chinense” (J Nat Prod, 2004).
